From patent US6951647B2, “T cell binding ligand peptides and method of inducing a cellular immune response” (Cel-Sci Corporation, priority 2001, dated 2005)
Several values for one entry are separate records, joined by “and”; a condition that tells them apart may be missing. Equal entries are not always repeated. Marks after values point to notes of the source that are not given here.

How the values were obtained:
[1] = tested on: modified HGP-30 (mH, SEQ ID NO:6); experiment: Isotype analysis (ELISA) of anti-mH antibody in sera of immunized mice; assay type: in vivo; design: IgG1 / IgG2a / IgG2b / IgG3: unit not given here; details: ELISA signal, day 42 test bleeding
Protocol: (§1) Mice in groups (5-10 animals per group as designated) are immunized with the LEAPS constructs (25 μg/dose) of SEQ ID NO's:37, 38 and 39, in 0.2 mL emulsified 1:1 with adjuvant (Seppic's ISA-51 or Corixa's microfluidized MPL S/E) on days 0 and 14. Mice are evaluated by Delayed Type of Hypersensitivity (DTH) by inoculation on day 26 with 20 μl of a solution of saline or mH (SEQ ID NO:6) (25 μg in saline) in the left or right ear respectively. The DTH response is determined by measurement of the ear thickness 48 hours later and expressed as increase in ear thickness (mm) of experimental ear compared to that of the control ear. Individual animal sera are collected for measurement of antibody on day 28, 42, 63 and 77. Sera from individual animals and group pools are evaluated for specific anti-mH antibody, for total antibody, IgG1, IgG2a and IgG3 antibody isotype and cross clade titer at selected time points as indicated.
The results of an isotype analysis of day 42 test bleedings with G′-mH (SEQ ID NO:37), G-mH (SEQ ID NO:38), J-mH (SEQ ID NO:39), F-mH (SEQ ID NO:40) and F-HGP-30 (SEQ ID NO:41), are shown in Table 1.
An isotype analysis for pools of day 28 test bleedings G-mH, G′-mH and m-HGP-30/KLH using either MPL S/E or ISA51 as adjuvant, are shown in Table 3.

modified HGP-30 [2] = experiment: ELISA antibody screening of sera of immunized mice on modified HGP-30; assay type: in vivo; details: day 63 test bleeding, sera 1:200, individual mouse
Protocol: as §1, with “indicated. […]” for “indicated.”

B Clade = experiment: ELISA cross clade recognition by sera of immunized mice, B Clade; assay type: in vivo; details: day 63 test bleeding, sera 1:200, individual mouse
Protocol: as §1
(§2) The mouse sera for the ELISA was used at a dilution of 1:200. Again, clearly, the construct provides higher signals indicative of higher levels of the antibodies that recognized other clades besides the parental one (Clade B) of mH.
(§3) A cross clade analysis for pools of day 42 test bleedings from the same groups as used in Table 3, were obtained and the results are shown in Table 4.

C Clade = experiment: ELISA cross clade recognition by sera of immunized mice, C Clade; assay type: in vivo; details: day 63 test bleeding, sera 1:200, individual mouse
Protocol: as §1, §2, §3

D Clade = experiment: ELISA cross clade recognition by sera of immunized mice, D Clade; assay type: in vivo; details: day 63 test bleeding, sera 1:200, individual mouse
Protocol: as §1, §2, §3

E Clade = experiment: ELISA cross clade recognition by sera of immunized mice, E Clade; assay type: in vivo; details: day 63 test bleeding, sera 1:200, individual mouse
Protocol: as §1, §2, §3

modified HGP-30 [3] = experiment: Delayed Type Hypersensitivity (DTH) ear thickness response with antisera depletion of CD4 or CD8 cells; assay type: in vivo, Mice
Protocol: as §1
Select immunoglobulin preparations were obtained from Dr. Stephen Hoffmann, Malaria Program, U.S. Navy. […] This allows one to determine some parts of the nature of various cellular (e.g., T-cell) involvement in the early stage of immune system response with the LEAPS peptide-constructs. It is recognized, however, that this is only a temporary event since new cells are continuously being developed from stem cells and the animals become resistant to the reagents.
The animals are pretreated with the antisera as indicated for 5 days before the initial immunization with peptide-construct having SEQ ID NO:37 or SEQ ID NO:39 on […]. No pretreatment is done before the booster immunization on day 14 or DTH on day 26-28. The mice are then inoculated with the test antigen or saline (control) on day 26 in the left and right ears, respectively, and the DTH response is measured on day 28. The difference between the values for the test and saline control ears is calculated for each group of five animals along with the standard error of the mean (sem) and the results are plotted (see FIG. 1). Also shown in FIG. 1 are values for the untreated animals and animals immunized on day 14 only.
The DTH (Delayed Type Hypersensitivity) data is statistically significant with a t-test of 0.05 for SEQ ID NO:39 and anti-CD8. The DTH for pretreatment of SEQ ID NO:37 immunized mice with anti-CD4 was just above the cutoff limit for statistical significance due to a weaker DTH response and small group size.

[4] = Day 14 Injection Only (immunized with construct on day 14 only), average of group of 5 mice
[5] = Treatment Anti CD4, daily for 5 days before immunization, average of group (5 mice)
[6] = Treatment Anti CD8, daily for 5 days before immunization, average of group of 5 mice
[7] = Treatment None, average of group (5 mice), ISA 51 adjuvant
[8] = Treatment Normal rat IgG, daily for 5 days before immunization, average of group (5 mice)

VQG EES NDK GGG YSV HQR IDV KDT KEA LEK IEE EQN KSK KKA (DLLKNGERIEKVEGGGSTAPPAHGV) [SEQ ID NO: 63, Peptide F linked by GGG spacer to HGP-30]
IgG1 ([1]; group Average): 0.652
IgG2a ([1]; group Average): 0.071
IgG2b ([1]; group Average): 0.024
IgG3 ([1]; group Average): 0.044
IgG1 ([1]; individual mouse): 0.761 and 0.181 and 0.649 and 0.417 and 0.022 and 1.379 and 0.030 and 0.349 and 0.717 and 2.018
IgG2a ([1]; individual mouse): 0.051 and 0.018 and 0.020 and 0.007 and 0.000 (2×) and 0.048 and 0.026 and 0.192 and 0.350
IgG2b ([1]; individual mouse): 0.003 and 0.001 and 0.007 and 0.005 and 0.006 and 0.028 and 0.047 and 0.000 and 0.027 and 0.117
IgG3 ([1]; individual mouse): 0.040 and 0.006 and 0.104 and 0.173 and 0.009 and 0.013 and 0.007 and 0.000 and 0.058 and 0.028
ELISA signal on modified HGP-30 (modified HGP-30 [2]): 0.065 and 0.216 and 0.128 and 0.000 and 0.110 and 0.017 and 0.201 and 0.623 and 0.747 and 0.013
ELISA signal on B Clade (B Clade): 0.000 (6×) and 0.282 and 1.977 and 0.667 and 0.011
ELISA signal on C Clade (C Clade): 0.000 (5×) and 0.135 and 0.010 and 1.878 and 0.650 and 1.051
ELISA signal on D Clade (D Clade): 0.000 (5×) and 0.012 and 0.005 and 1.941 and 0.386 and 0.050
ELISA signal on E Clade (E Clade): 0.000 (7×) and 1.565 and 0.042 and 1.010

DLL KNG ERI EKV EGG GAT LYS VHQ RID VKD TKE ALE KIE EEQ NKS (DGQEEKAGVVSTGLIGGGQYSWFVNGTF) [SEQ ID NO: 59, Peptide J linked by GGG spacer to modified HGP-30 (mH)]
IgG1 ([1]; group Average): 0.717
IgG2a ([1]; group Average): 0.046
IgG2b ([1]; group Average): 0.019
IgG3 ([1]; group Average): 0.070
IgG1 ([1]; individual mouse): 0.002 and 1.603 and 0.014 and 2.023 and 2.199 and 0.053 and 0.057 and 0.505 and 0.000
IgG2a ([1]; individual mouse): 0.002 (2×) and 0.027 and 0.000 (2×) and 0.299 and 0.060 and 0.014 and 0.011
IgG2b ([1]; individual mouse): 0.002 and 0.014 and 0.000 (5×) and 0.113 and 0.039
IgG3 ([1]; individual mouse): 0.017 and 0.032 and 0.009 and 0.227 and 0.324 and 0.000 (2×) and 0.003 and 0.016
ELISA signal on modified HGP-30 (modified HGP-30 [2]): 0.440 and 0.011 and 0.753 and 0.905 and 0.793 and 0.100 and 0.035 and 0.000 (2×)
ELISA signal on B Clade (B Clade): 0.262 and 0.000 (6×) and 0.575 and 0.026
ELISA signal on C Clade (C Clade): 2.421 and 1.699 and 1.295 and 0.969 and 0.665 and 0.780 and 0.171 and 1.370 and 2.322
ELISA signal on D Clade (D Clade): 0.120 and 0.004 and 0.196 and 0.000 (6×)
ELISA signal on E Clade (E Clade): 2.431 and 1.565 and 0.789 and 0.788 and 0.554 and 0.722 and 0.142 and 1.379 and 2.379
Left Ear thickness, inoculated day 26 with HGP-30, measured after 48 hours (modified HGP-30 [3]; [4]): 0.254 mm
Right Ear thickness, inoculated day 26 with saline, measured after 48 hours (modified HGP-30 [3]; [4]): 0.231 mm
DTH % increase (L-R)/R (modified HGP-30 [3]; Day 14 Injection Only, average of group of 5 mice): 10.00%
Left Ear thickness, inoculated day 26 with HGP-30, measured after 48 hours (modified HGP-30 [3]; [5]): 0.288 mm
Right Ear thickness, inoculated day 26 with saline, measured after 48 hours (modified HGP-30 [3]; [5]): 0.240 mm
DTH % increase (L-R)/R (modified HGP-30 [3]; Treatment Anti CD4, average of group (5 mice)): 20.00%
Left Ear thickness, inoculated day 26 with HGP-30, measured after 48 hours (modified HGP-30 [3]; [6]): 0.233 mm
Right Ear thickness, inoculated day 26 with saline, measured after 48 hours (modified HGP-30 [3]; [6]): 0.220 mm
DTH % increase (L-R)/R (modified HGP-30 [3]; Treatment Anti CD8, average of group of 5 mice): 6.20%***
DTH % increase (L-R)/R (modified HGP-30 [3]; Treatment None, average of group (5 mice)): 29.30%
Left Ear thickness, inoculated day 26 with HGP-30, measured after 48 hours (modified HGP-30 [3]; [7]): 0.288 mm
Right Ear thickness, inoculated day 26 with saline, measured after 48 hours (modified HGP-30 [3]; [7]): 0.222 mm
Left Ear thickness, inoculated day 26 with HGP-30, measured after 48 hours (modified HGP-30 [3]; [8]): 0.296 mm
Right Ear thickness, inoculated day 26 with saline, measured after 48 hours (modified HGP-30 [3]; [8]): 0.227 mm
DTH % increase (L-R)/R (modified HGP-30 [3]; Treatment Normal rat IgG, average of group (5 mice)): 30.60%
Type of cells required for a DTH response (modified HGP-30 [3]; cell specific antisera as depletion reagent for the primary immunization (FIG. 1)): requires the presence and presumably activation of CD8+ but not CD4+ cells
